Target: mouse recombinant isozyme PKCα (Mus musculus, UniProt P20444)
Assay: [3H]PDBu binding assay (displacement of bound [20-3H]phorbol 12,13-dibutyrate)
Conditions: displacement of [3H]PDBu from PKCα in the presence of calcium and phosphatidylserine; read-out: inhibitory dissociation constant (Ki)
Procedure: The inhibitory dissociation constant (Ki) of each bryologue ligand was determined by the ability of the ligand to displace bound [20-^3H]phorbol 12,13-dibutyrate (PDBu) from mouse recombinant isozyme PKC α in the presence of calcium and phosphatidylserine, using a polyethylene glycol precipitation assay developed in our laboratory as described elsewhere. Briefly, the assay mixture (250 μL) contained 50 mM Tris-HCl (pH 7.4 at room temperature), 100 μg/mL phosphatidylserine, 0.1 mM Ca^2+, 4 mg/mL bovine immunoglobulin G and 0.003% Tx-100, 2 nM [^3H]PDBu and various concentrations of the competing ligand. […] The radioactivity was determined by scintillation counting, using Cytoscint (ICN, Costa Mesa, Calif.). Specific binding was calculated as the difference between total and nonspecific PDBu binding. The Inhibitory dissociation constants (Ki) were calculated using the method previously described by Blumberg and Lewin.
The inhibitory dissociation constant (Ki) of MERLE 28 was determined by the ability of the ligand to displace bound [20-^3H]phorbol 12,13-dibutyrate (PDBu) from mouse recombinant isozyme PKCα in the presence of calcium and phosphatidylserine, using a polyethylene glycol precipitation assay previously described by Blumberg and Lewin. […] The radioactivity was determined by scintillation counting, using Cytoscint (ICN, Costa Mesa, Calif.). […]

Structure (SMILES): C=C1C[C@H]2C[C@H]3C[C@@H](OC(C)=O)C[C@@H](C[C@@H](O)CC(=O)O[C@@H]([C@@H](C)O)C[C@@H]4C/C(=C\C(=O)OC)[C@H](OC(=O)CCCCCCC)[C@@](O)(O4)C(C)(C)/C=C/[C@@H](C1)O2)O3 [MERLE 27]
- Ki: 3 ± 0.6 nM
